From ChEMBL document CHEMBL3886358, “Quinolyl-containing hydroxamic acid compound and preparation method thereof, and pharmaceutical composition containing this compound and use thereof” (2015)

Columns and labels:
[1] = molecular target: T1, Protein deacetylase HDAC6 (Homo sapiens, UniProt Q9UBN7); experiment: (§1) Inhibition Assay: The inhibitions of activities of HDAC enzymes by the compounds N1'-[3-fluoro-4-[[7-[4-(hydroxyamino)-4-oxobutoxy]-6-methoxy-4-quinolyl]oxy]phenyl]-N1-(4-fluoro phenyl)cyclopropane-1,1-dicarboxamide prepared in Example 9 and N1'-[3-fluoro-4-[[7-[6-(hydroxyamino)-6-oxohexyloxy]-6-methoxy-4-quinolyl]oxy]phenyl]-N1-(4-fluo rophenyl)cyclopropane-1,1-dicarboxamide prepared in Example 13 were measured by Reaction Biology Corporation (Reaction Biology Corp., One Great Valley Parkway, Suite 2, Malvern, PA 19355, USA . http://www.reactionbiology.com/pages/hdac.htm). The HDAC enzymes tested include the following 11 HDAC isoforms: HDAC1, HDAC2, HDAC3, HDAC4, HDAC5, HDAC6, HDAC7, HDAC8, HDAC9, HDAC10 and HDAC11.Specific steps were as follows: The compound of the present invention was dissolved in dimethyl sulfoxide (DMSO) to make a stock solution of 10 mM. The stock solution was diluted in 4-fold series starting from 10 mM to prepare 10 different dosages.
T1 sequence (Q9UBN7 whole entry): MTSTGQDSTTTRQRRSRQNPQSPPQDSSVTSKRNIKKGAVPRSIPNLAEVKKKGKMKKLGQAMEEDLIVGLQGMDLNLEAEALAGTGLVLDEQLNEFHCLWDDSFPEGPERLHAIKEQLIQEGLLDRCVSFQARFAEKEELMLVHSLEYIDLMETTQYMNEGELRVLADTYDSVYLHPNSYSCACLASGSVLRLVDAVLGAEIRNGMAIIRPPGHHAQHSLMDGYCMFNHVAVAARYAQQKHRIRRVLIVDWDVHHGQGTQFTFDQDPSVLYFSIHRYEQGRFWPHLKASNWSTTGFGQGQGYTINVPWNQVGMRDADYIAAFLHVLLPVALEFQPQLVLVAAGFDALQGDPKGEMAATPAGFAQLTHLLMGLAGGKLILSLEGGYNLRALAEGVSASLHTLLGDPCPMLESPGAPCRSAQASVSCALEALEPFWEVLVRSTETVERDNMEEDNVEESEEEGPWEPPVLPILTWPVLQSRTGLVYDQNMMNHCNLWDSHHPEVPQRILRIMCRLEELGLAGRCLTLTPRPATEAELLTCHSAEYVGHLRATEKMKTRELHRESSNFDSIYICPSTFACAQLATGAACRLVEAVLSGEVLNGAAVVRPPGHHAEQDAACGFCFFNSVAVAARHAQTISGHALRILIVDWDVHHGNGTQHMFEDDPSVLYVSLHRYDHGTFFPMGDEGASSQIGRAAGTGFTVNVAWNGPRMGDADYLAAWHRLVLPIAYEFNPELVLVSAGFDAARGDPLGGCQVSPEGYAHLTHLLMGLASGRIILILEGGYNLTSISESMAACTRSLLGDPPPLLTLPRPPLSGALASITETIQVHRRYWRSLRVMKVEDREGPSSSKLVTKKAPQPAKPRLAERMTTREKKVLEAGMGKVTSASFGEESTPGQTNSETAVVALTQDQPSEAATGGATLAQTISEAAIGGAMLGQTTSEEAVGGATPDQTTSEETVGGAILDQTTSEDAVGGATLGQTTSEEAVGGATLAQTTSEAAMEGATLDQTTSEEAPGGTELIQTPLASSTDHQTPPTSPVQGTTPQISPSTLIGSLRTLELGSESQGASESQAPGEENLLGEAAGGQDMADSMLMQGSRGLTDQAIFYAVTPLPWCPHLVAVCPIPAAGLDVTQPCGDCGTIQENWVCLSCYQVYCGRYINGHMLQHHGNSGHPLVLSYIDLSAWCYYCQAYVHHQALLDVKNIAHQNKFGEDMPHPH

[2] = molecular target: T2, Polyamine deacetylase HDAC10 (Homo sapiens, UniProt Q969S8); experiment: as §1
T2 sequence (Q969S8 whole entry): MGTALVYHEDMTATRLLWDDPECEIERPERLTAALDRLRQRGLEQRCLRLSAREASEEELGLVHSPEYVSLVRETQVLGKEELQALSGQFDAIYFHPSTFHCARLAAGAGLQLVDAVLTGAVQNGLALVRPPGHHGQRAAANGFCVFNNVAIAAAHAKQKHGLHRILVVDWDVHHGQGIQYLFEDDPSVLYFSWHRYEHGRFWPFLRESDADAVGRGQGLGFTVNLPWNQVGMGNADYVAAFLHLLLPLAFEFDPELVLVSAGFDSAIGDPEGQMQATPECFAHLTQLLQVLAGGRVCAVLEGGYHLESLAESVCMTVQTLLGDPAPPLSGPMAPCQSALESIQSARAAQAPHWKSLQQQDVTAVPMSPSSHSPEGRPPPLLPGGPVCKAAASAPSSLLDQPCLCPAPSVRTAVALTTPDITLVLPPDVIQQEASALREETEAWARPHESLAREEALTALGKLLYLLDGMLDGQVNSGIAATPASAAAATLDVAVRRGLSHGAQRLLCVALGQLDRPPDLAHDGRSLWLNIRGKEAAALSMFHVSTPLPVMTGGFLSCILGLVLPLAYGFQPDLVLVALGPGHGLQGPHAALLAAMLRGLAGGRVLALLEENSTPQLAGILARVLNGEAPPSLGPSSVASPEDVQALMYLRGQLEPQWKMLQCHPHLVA

Histone deacetylase 7 = molecular target: T3, Histone deacetylase 7 (Homo sapiens, UniProt Q8WUI4); experiment: as §1
T3 sequence (Q8WUI4 whole entry): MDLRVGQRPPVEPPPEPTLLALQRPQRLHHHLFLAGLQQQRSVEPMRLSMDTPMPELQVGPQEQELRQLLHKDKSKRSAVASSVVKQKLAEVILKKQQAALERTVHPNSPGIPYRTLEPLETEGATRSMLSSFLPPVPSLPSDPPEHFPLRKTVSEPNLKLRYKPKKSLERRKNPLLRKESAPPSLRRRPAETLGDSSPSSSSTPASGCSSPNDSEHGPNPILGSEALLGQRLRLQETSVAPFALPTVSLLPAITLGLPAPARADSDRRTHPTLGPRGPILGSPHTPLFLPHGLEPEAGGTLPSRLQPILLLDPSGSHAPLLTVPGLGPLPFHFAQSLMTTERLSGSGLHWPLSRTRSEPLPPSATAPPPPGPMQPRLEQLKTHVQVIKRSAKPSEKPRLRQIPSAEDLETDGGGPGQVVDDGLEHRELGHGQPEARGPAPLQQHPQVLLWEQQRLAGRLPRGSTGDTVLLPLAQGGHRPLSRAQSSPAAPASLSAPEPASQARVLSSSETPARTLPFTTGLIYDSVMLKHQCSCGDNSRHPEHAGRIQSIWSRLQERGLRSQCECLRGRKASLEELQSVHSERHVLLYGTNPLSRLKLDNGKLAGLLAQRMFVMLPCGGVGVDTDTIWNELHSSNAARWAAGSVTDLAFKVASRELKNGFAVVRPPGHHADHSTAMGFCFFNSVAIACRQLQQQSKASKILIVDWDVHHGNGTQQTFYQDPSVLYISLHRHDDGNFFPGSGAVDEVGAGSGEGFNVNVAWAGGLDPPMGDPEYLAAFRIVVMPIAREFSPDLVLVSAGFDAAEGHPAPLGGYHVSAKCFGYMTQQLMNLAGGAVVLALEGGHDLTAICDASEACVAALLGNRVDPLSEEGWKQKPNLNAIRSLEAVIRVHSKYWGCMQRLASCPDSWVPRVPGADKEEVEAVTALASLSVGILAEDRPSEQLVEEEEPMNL

Histone deacetylase 5 = Histone deacetylase 5 (Homo sapiens, UniProt Q9UQL6); experiment: as §1
Chain of Histone deacetylase 5 (Q9UQL6 whole entry): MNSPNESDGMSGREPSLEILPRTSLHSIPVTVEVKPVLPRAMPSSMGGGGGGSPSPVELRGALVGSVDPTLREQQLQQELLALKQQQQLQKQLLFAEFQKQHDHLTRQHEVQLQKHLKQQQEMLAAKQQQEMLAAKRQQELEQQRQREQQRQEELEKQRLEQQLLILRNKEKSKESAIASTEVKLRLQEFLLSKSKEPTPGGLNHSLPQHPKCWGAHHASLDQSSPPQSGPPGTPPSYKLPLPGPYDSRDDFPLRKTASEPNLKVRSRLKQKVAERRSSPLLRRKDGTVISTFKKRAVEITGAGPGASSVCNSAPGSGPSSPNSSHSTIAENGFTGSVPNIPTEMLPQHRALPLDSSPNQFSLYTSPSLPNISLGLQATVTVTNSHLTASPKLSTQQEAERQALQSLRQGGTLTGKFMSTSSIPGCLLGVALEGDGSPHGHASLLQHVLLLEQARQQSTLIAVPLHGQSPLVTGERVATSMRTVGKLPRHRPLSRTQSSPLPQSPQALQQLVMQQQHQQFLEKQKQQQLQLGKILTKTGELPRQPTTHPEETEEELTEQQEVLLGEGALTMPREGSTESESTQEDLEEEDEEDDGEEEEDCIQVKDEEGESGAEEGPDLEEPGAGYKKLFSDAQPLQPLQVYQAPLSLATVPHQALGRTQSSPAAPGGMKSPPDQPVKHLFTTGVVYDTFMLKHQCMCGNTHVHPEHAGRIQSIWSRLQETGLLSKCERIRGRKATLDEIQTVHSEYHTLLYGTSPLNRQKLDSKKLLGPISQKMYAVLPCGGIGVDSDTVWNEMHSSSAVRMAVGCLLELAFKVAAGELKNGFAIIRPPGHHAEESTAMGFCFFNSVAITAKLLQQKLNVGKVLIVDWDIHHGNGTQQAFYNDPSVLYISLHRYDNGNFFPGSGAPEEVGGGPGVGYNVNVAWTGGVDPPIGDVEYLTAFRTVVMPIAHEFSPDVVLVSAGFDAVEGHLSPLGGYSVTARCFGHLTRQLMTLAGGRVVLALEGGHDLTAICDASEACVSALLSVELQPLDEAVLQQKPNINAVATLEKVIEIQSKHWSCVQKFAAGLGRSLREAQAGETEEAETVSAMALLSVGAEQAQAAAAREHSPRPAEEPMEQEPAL

## COc1cc2c(Oc3ccc(NC(=O)C4(C(=O)Nc5ccc(F)cc5)CC4)cc3F)ccnc2cc1OCCCC(=O)NO
[1]
  IC50: 0.242 µM
[2]
  IC50: > 10 µM
Histone deacetylase 7
  IC50: > 10 µM
Histone deacetylase 5
  IC50: > 10 µM

## COc1cc2c(Oc3ccc(NC(=O)C4(C(=O)Nc5ccc(F)cc5)CC4)cc3F)ccnc2cc1OCCCCCC(=O)NO
[1]
  IC50: 0.0083 µM
[2]
  IC50: 11.9 µM
Histone deacetylase 7
  IC50: > 10 µM
Histone deacetylase 5
  IC50: > 10 µM
